On1nnc2ccccc21
Details	solubility (mole fraction)
in 1,4-dioxane, 288.15 K	0.0145
in 1,4-dioxane, 290.65 K	0.0158
in 1,4-dioxane, 293.15 K	0.0171
in 1,4-dioxane, 295.65 K	0.0187
in 1,4-dioxane, 298.15 K	0.0202
in 1,4-dioxane, 300.65 K	0.0225
in 1,4-dioxane, 303.15 K	0.0247
in 1,4-dioxane, 305.65 K	0.0272
in 1,4-dioxane, 308.15 K	0.0298
in 1,4-dioxane, 310.65 K	0.0331
in 1,4-dioxane, 313.15 K	0.0364
in 2-butanone, 278.15 K	0.0157
in 2-butanone, 280.65 K	0.0169
in 2-butanone, 283.15 K	0.0181
in 2-butanone, 285.65 K	0.0195
in 2-butanone, 288.15 K	0.021
in 2-butanone, 290.65 K	0.0225
in 2-butanone, 293.15 K	0.0241
in 2-butanone, 295.65 K	0.0259
in 2-butanone, 298.15 K	0.0278
in 2-butanone, 300.65 K	0.0299
in 2-butanone, 303.15 K	0.0323
in 2-butanone, 305.65 K	0.0347
in 2-butanone, 308.15 K	0.0372
in 2-butanone, 310.65 K	0.0402
in 2-butanone, 313.15 K	0.0433
in DMF, 278.15 K	0.0412
in DMF, 280.65 K	0.0464
in DMF, 283.15 K	0.0522
in DMF, 285.65 K	0.0587
in DMF, 288.15 K	0.0646
in DMF, 290.65 K	0.072
in DMF, 293.15 K	0.0794
in DMF, 295.65 K	0.0884
in DMF, 298.15 K	0.098
in DMF, 300.65 K	0.109
in DMF, 303.15 K	0.121
in DMF, 305.65 K	0.134
in DMF, 308.15 K	0.148
in DMF, 310.65 K	0.164
in DMF, 313.15 K	0.18
in DMSO, 278.15 K	0.0337
in DMSO, 280.65 K	0.0377
in DMSO, 283.15 K	0.0421
in DMSO, 285.65 K	0.0475
in DMSO, 288.15 K	0.0529
in DMSO, 290.65 K	0.0592
in DMSO, 293.15 K	0.0664
in DMSO, 295.65 K	0.0738
in DMSO, 298.15 K	0.082
in DMSO, 300.65 K	0.0921
in DMSO, 303.15 K	0.103
in DMSO, 305.65 K	0.114
in DMSO, 308.15 K	0.128
in DMSO, 310.65 K	0.142
in DMSO, 313.15 K	0.157
in acetone, 278.15 K	0.0139
in acetone, 280.65 K	0.0149
in acetone, 283.15 K	0.016
in acetone, 285.65 K	0.0171
in acetone, 288.15 K	0.0184
in acetone, 290.65 K	0.0198
in acetone, 293.15 K	0.0214
in acetone, 295.65 K	0.0229
in acetone, 298.15 K	0.0246
in acetone, 300.65 K	0.0266
in acetone, 303.15 K	0.0285
in acetone, 305.65 K	0.0306
in acetone, 308.15 K	0.033
in acetone, 310.65 K	0.0355
in acetone, 313.15 K	0.0383
in acetonitrile, 278.15 K	0.00229
in acetonitrile, 280.65 K	0.00249
in acetonitrile, 283.15 K	0.00271
in acetonitrile, 285.65 K	0.00295
in acetonitrile, 288.15 K	0.00322
in acetonitrile, 290.65 K	0.00348
in acetonitrile, 293.15 K	0.0038
in acetonitrile, 295.65 K	0.00414
in acetonitrile, 298.15 K	0.00449
in acetonitrile, 300.65 K	0.00488
in acetonitrile, 303.15 K	0.00531
in acetonitrile, 305.65 K	0.0058
in acetonitrile, 308.15 K	0.00631
in acetonitrile, 310.65 K	0.00685
in acetonitrile, 313.15 K	0.00749
in ethanol, 278.15 K	0.0318
in ethanol, 280.65 K	0.0331
in ethanol, 283.15 K	0.0355
in ethanol, 285.65 K	0.0377
in ethanol, 288.15 K	0.0406
in ethanol, 290.65 K	0.0433
in ethanol, 293.15 K	0.0462
in ethanol, 295.65 K	0.0493
in ethanol, 298.15 K	0.0528
in ethanol, 300.65 K	0.0566
in ethanol, 303.15 K	0.0605
in ethanol, 305.65 K	0.0651
in ethanol, 308.15 K	0.0697
in ethanol, 310.65 K	0.0746
in ethanol, 313.15 K	0.0802
in ethyl acetate, 278.15 K	0.00505
in ethyl acetate, 280.65 K	0.00555
in ethyl acetate, 283.15 K	0.00606
in ethyl acetate, 285.65 K	0.00676
in ethyl acetate, 288.15 K	0.00745
in ethyl acetate, 290.65 K	0.00821
in ethyl acetate, 293.15 K	0.00908
in ethyl acetate, 295.65 K	0.0101
in ethyl acetate, 298.15 K	0.0115
in ethyl acetate, 300.65 K	0.013
in ethyl acetate, 303.15 K	0.0149
in ethyl acetate, 305.65 K	0.0169
in ethyl acetate, 308.15 K	0.0193
in ethyl acetate, 310.65 K	0.0219
in ethyl acetate, 313.15 K	0.0247
in isooctanol, 278.15 K	0.0108
in isooctanol, 280.65 K	0.0112
in isooctanol, 283.15 K	0.0115
in isooctanol, 285.65 K	0.0119
in isooctanol, 288.15 K	0.0123
in isooctanol, 290.65 K	0.0127
in isooctanol, 293.15 K	0.0132
in isooctanol, 295.65 K	0.0137
in isooctanol, 298.15 K	0.0143
in isooctanol, 300.65 K	0.0149
in isooctanol, 303.15 K	0.0154
in isooctanol, 305.65 K	0.0161
in isooctanol, 308.15 K	0.0168
in isooctanol, 310.65 K	0.0175
in isooctanol, 313.15 K	0.0182
in isopentanol, 278.15 K	0.0109
in isopentanol, 280.65 K	0.0114
in isopentanol, 283.15 K	0.0118
in isopentanol, 285.65 K	0.0123
in isopentanol, 288.15 K	0.0127
in isopentanol, 290.65 K	0.0132
in isopentanol, 293.15 K	0.0137
in isopentanol, 295.65 K	0.0143
in isopentanol, 298.15 K	0.0148
in isopentanol, 300.65 K	0.0155
in isopentanol, 303.15 K	0.0161
in isopentanol, 305.65 K	0.0167
in isopentanol, 308.15 K	0.0174
in isopentanol, 310.65 K	0.0181
in isopentanol, 313.15 K	0.0188
in isopropanol, 278.15 K	0.0248
in isopropanol, 280.65 K	0.0261
in isopropanol, 283.15 K	0.0281
in isopropanol, 285.65 K	0.0301
in isopropanol, 288.15 K	0.032
in isopropanol, 290.65 K	0.0341
in isopropanol, 293.15 K	0.0367
in isopropanol, 295.65 K	0.0392
in isopropanol, 298.15 K	0.0421
in isopropanol, 300.65 K	0.0451
in isopropanol, 303.15 K	0.0481
in isopropanol, 305.65 K	0.0515
in isopropanol, 308.15 K	0.0553
in isopropanol, 310.65 K	0.0592
in isopropanol, 313.15 K	0.0637
in methanol, 278.15 K	0.0223
in methanol, 280.65 K	0.0239
in methanol, 283.15 K	0.0254
in methanol, 285.65 K	0.0274
in methanol, 288.15 K	0.0294
in methanol, 290.65 K	0.0314
in methanol, 293.15 K	0.0336
in methanol, 295.65 K	0.0358
in methanol, 298.15 K	0.0386
in methanol, 300.65 K	0.0415
in methanol, 303.15 K	0.0445
in methanol, 305.65 K	0.048
in methanol, 308.15 K	0.0522
in methanol, 310.65 K	0.0562
in methanol, 313.15 K	0.0609
in n-heptanol, 278.15 K	0.0119
in n-heptanol, 280.65 K	0.0123
in n-heptanol, 283.15 K	0.0129
in n-heptanol, 285.65 K	0.0134
in n-heptanol, 288.15 K	0.014
in n-heptanol, 290.65 K	0.0146
in n-heptanol, 293.15 K	0.0152
in n-heptanol, 295.65 K	0.0158
in n-heptanol, 298.15 K	0.0165
in n-heptanol, 300.65 K	0.0173
in n-heptanol, 303.15 K	0.0182
in n-heptanol, 305.65 K	0.019
in n-heptanol, 308.15 K	0.02
in n-heptanol, 310.65 K	0.021
in n-heptanol, 313.15 K	0.022
in n-hexanol, 278.15 K	0.0114
in n-hexanol, 280.65 K	0.0118
in n-hexanol, 283.15 K	0.0123
in n-hexanol, 285.65 K	0.0129
in n-hexanol, 288.15 K	0.0134
in n-hexanol, 290.65 K	0.0139
in n-hexanol, 293.15 K	0.0145
in n-hexanol, 295.65 K	0.0152
in n-hexanol, 298.15 K	0.0159
in n-hexanol, 300.65 K	0.0166
in n-hexanol, 303.15 K	0.0174
in n-hexanol, 305.65 K	0.0182
in n-hexanol, 308.15 K	0.019
in n-hexanol, 310.65 K	0.0198
in n-hexanol, 313.15 K	0.0206
in n-propanol, 278.15 K	0.0297
in n-propanol, 280.65 K	0.0319
in n-propanol, 283.15 K	0.034
in n-propanol, 285.65 K	0.0362
in n-propanol, 288.15 K	0.0387
in n-propanol, 290.65 K	0.0412
in n-propanol, 293.15 K	0.044
in n-propanol, 295.65 K	0.0472
in n-propanol, 298.15 K	0.0502
in n-propanol, 300.65 K	0.0535
in n-propanol, 303.15 K	0.0573
in n-propanol, 305.65 K	0.0612
in n-propanol, 308.15 K	0.0655
in n-propanol, 310.65 K	0.0698
in n-propanol, 313.15 K	0.0749
in toluene, 278.15 K	1.1e-05
in toluene, 280.65 K	1.2e-05
in toluene, 283.15 K	1.5e-05
in toluene, 285.65 K	1.61e-05
in toluene, 288.15 K	1.99e-05
in toluene, 290.65 K	2.17e-05
in toluene, 293.15 K	2.49e-05
in toluene, 295.65 K	2.85e-05
in toluene, 298.15 K	3.26e-05
in toluene, 300.65 K	3.61e-05
in toluene, 303.15 K	4.28e-05
in toluene, 305.65 K	4.87e-05
in toluene, 308.15 K	5.56e-05
in toluene, 310.65 K	6.2e-05
in toluene, 313.15 K	6.92e-05

Source: BigSolDB 2.1
